Data from a melting point compilation (Tetko et al.; mined from patent text by program, amines drawn as free bases though some values may be those of a salt).

SMILES | melting point [°C]
CC(C)Cn1cnc2c(N)nc3ccc(CCCCc4ccccc4)cc3c21 | 176 to 177
COc1ccc2nc3cc(Cl)ccc3c(Oc3ccc(Cl)cc3)c2c1 | 152 to 153
COc1ccc(C(=O)N2C(=O)CCC2CCC(=O)OCc2ccccc2)cc1OCc1ccccc1 (stereo not given) | 92 to 95
COCC(Cl)c1nc2c(C(F)(F)F)cccc2c(O)c1C(=O)Nc1nccs1 (stereo not given) | 186
O=C(C1Nc2cc(F)ccc2-n2cnc(-c3nc(C4CC4)no3)c21)N1CCOCC1 (stereo not given) | 240 to 242
CCCN(CCC)c1nc2ccccc2n2cnnc12 | 240 to 242
CCc1ccc(N=c2sc3ncccc3c(=O)n2CC)cc1 | 148 to 149
COc1cc(Cc2cnc(N)nc2N)cc(-c2cccc(NS(=O)(=O)c3ccc(N)cc3)c2)c1OC | 223 to 226
CC(c1ccccc1N1CCCCC1)C(C(N)=O)c1ccc(C(=O)N2CCOCC2)cc1 (stereo not given) | 148 to 150
Cc1cccc(Nc2cc(Nc3ccc(OCC(N)=O)cc3)ncn2)c1 | 212 to 215
ON=C1c2ccccc2CSc2ccccc21 | 241 to 243
COC(=O)c1cc(O)n2nc(C)nc2n1 | 170 to 174
CCCOc1ccnc2[nH]cc(-c3ccnc(N)n3)c12 | > 210
C=CCC(Cc1ccc(OC)c(OCCc2ccccc2)c1)NC(=O)OC(C)(C)C (stereo not given) | 94.5 to 95.3
COc1cc2c(c3c1OC(C)(C)C3)C(c1ccnc(Cl)c1)=NC(C)(C)C2 | 139 to 140
CC1=C(O)C(=O)C(C)C1 (stereo not given) | 92 to 93
CC(c1ccccc1)C(Oc1c(Br)cc(-c2c3ccccc3c(Br)c3sc4ccccc4c23)cc1Br)C(=O)O (stereo not given) | 115 to 120
COc1ccc2c(=O)[nH]c(-c3ccc(OCCO)c(-c4ccc(S(C)=O)cc4)n3)nc2c1 (stereo not given) | 266 to 267
N#CC1=C(Nc2ccc(Br)cc2)CCC1 | 136 to 138
O=C(CCl)Nc1cc(Oc2ncccc2C(F)(F)F)c(Cl)cc1F | 146 to 149
CNC(=C[N+](=O)[O-])NOCCCc1csc(NC(=N)N)n1 | 144 to 146
CCOC(=O)c1ccc(OCCCc2ccc(OC)c(OC)c2)cc1 | 70 to 71
CCOC(=O)c1c(C(F)(F)F)nc(C(F)F)c(C(=O)OC)c1-n1cccn1 | 42 to 52
Cc1oc(-c2ccco2)nc1COc1ccc(Cn2cc(CCC(=O)O)c(-c3ccccc3)n2)cc1 | 152 to 153
Fc1ccc2occ(CCN3CCN(c4cccc5cccnc45)CC3)c2c1 | 54

SMILES | melting point [°C]
O=C1c2c(O)ccc(O)c2C(=O)c2c(NCCN3CCOCC3)ccc(NCCN3CCOCC3)c21 | 241 to 243
CC1CN(c2nnc(N3CCOC(C)C3)c3cc(-c4ccccc4)ncc23)CCO1 (stereo not given) | 75 to 81
C[C@H](O)Cc1ncc[nH]1 | 119 to 121
CCCCCCCCCCOc1cc(OCCCCCCCCCC)cc(C(=O)C(=O)OC)c1 | 49 to 50
CCOC(=O)c1c(NC=CC(=O)C(C)C)sc(-c2ccc(OC)cc2)c1C | 121 to 122
O=C1CCC(c2ccccc2)(c2ccccc2)[C@@H]2CN(C(=O)Cc3c[nH]c4ccccc34)C[C@H]12 (racemic) | 250
O=S(=O)(c1ccc(N2CCCCC2)cc1)N1CCCC1=S | 195 to 200
COc1ccc(-c2n[nH]c3c2sc2ccccc23)cc1 | 185 to 187
CCCCNC(=O)Oc1cccc(NC(=O)C=C(C)OC)c1 | 166
O=C(O)c1cccc(-c2ccc(F)c3cc(Cc4cc(F)cc(Cl)c4)sc23)c1 | 185 to 186
COc1ccc2c(c1[N+](=O)[O-])C(=O)CC2 | 155 to 158
CCOCCNS(=O)(=O)NC(=O)OCc1ccc(OCCOC)cc1Oc1ncc(C(F)(F)F)cc1Cl | 142 to 143
CCOC(=O)c1cnn(-c2ccc(OCC(C)CC)c(C#N)c2)c1 (stereo not given) | 104
S=C1CC(c2ccccc2)=Nc2ccccc2N1 | 228 to 230
Cc1cc(C)c2cc3c(cc2n1)C(NCCc1ccccc1)C(O)C(C)(C)O3 (stereo not given) | 144 to 147
Cc1c(O)c(=O)[nH]c2ccccc2c1=O | 252
O=C(O)C1Cc2ccccc2N1S(=O)(=O)c1ccc(-c2cccc(C(F)(F)F)c2)cc1 (stereo not given) | 108 to 112
CC(=O)NC1=NN(c2ccc(Cl)cc2)CC1C (stereo not given) | 172 to 173
COc1cc(C(O)Cc2ccccc2)ccc1OCc1ccccc1 (stereo not given) | 97 to 98
Cc1ncc(CN2CC=C(c3ccccc3)CC2)c(N)n1 | 165 to 166
COc1ccc2c(ccc3nc(C(=O)O)cn32)c1 | 265 to 266
CS(=O)(=O)Nc1ccc(OCC2CCN(C(=O)OCc3ccccc3)CC2)cc1 | 150 to 151
COC(=O)c1cc(C(=O)OC)n(-c2ccc(Cl)cc2C(=O)c2ccccc2)n1 | 118 to 120
CCc1nc2ccc(OC(F)(F)F)cc2[nH]1 | 135 to 137
CCC(Nc1ncnc2c1ncn2C1OC(CO)C(O)C1O)c1ccccc1 (stereo not given) | 73 to 84

SMILES | melting point [°C]
CC(=O)Nc1ccc(SC(CCc2ccc(Cl)cc2)Cn2ccnc2)cc1 (stereo not given) | 166
CC(=O)c1cccc([N+](=O)[O-])c1Cl | 41 to 43
Cn1c(C(=O)O)c(-c2ccc(F)cc2)c2nccnc2c1=O | 247 to 249
Cc1ccccc1OCc1ccccc1[N+](=O)[O-] | 83
CCN(CC)c1ccc(-c2ncccc2S(=O)(=O)Nc2ncc(C)nc2OC)cc1 | 115 to 117
CC(C)(C)NC(=O)c1ccccc1-c1ccc(CBr)cc1 | 124 to 126
Cc1ccc(-c2nnc(N3CCOCC3)nc2-c2ccc(C)cc2)cc1 | 190 to 192
O=C(O)CC(c1ccc(F)cc1)c1ccc(F)cc1 | 106 to 107
O=C(Nc1ccc(F)cc1)OCC1CSC2=C(O1)c1ccccc1C(=O)C2=O (stereo not given) | 235 to 237
CNC(=C[N+](=O)[O-])NCCCCOc1cccc(CCN(C)C)c1 | 59 to 63
CC(C)(C)c1cc(CCc2cc(C(C)(C)C)c(O)c(C(C)(C)C)c2)cc(C(C)(C)C)c1O | 170 to 171
O=C1c2cccc3cccc(c23)C(=O)N1CCCCBr | 113 to 115
NCc1ccccc1C(F)(F)C(F)(F)c1ccc(F)cc1 | 64 to 66
CCn1nc(C)c2c(Cl)c(CCl)cnc21 | 96 to 97
O=C(NN1CCNC1=O)c1c[nH]c2cc(O)c(O)cc2c1=O | > 300
Cc1cc(CCCCCOc2c(Cl)cc(C3=NCCO3)cc2Cl)sn1 | 38 to 39.5
C#CCn1cc(Cl)cnc1=O | 130
COCCOc1ccc(Sc2c(O)c3c(=O)n(-c4ccccc4)c4ccccc4c3oc2=O)cc1 | 144 to 146
CCC(O)(c1ccc(OCc2cccc(C)n2)cc1)c1ccccc1OC (stereo not given) | 110 to 111
C=Cc1cc(C)cc(C)c1C1=C(O)C2(CCN(OC)CC2)N(C)C1=O | 158 to 161
OC1CSC(Oc2ccccc2-c2ccno2)C(O)C1O (stereo not given) | 200
COc1cc(Cl)nc(Nc2ccccc2)n1 | 101 to 103
COc1ccc(-c2ccnn2-c2ccc(N3C[C@H](CNC(C)=O)OC3=O)cc2F)cc1OC | 154 to 156
O=S(=O)(O)c1cccc(NCc2ccc(Cl)c(Cl)c2)c1 | > 275
CC(C)(C)OC(=O)N1CC(=O)Nc2ccccc21 | 143 to 144

SMILES | melting point [°C]
N#CC(C#N)=CN(Cc1ccc(Cl)c(Cl)c1)c1cc(C(F)(F)F)cc(C(F)(F)F)c1 | 102 to 103
Cc1sc(C(=O)O)cc1NC(=O)Cc1ccccc1 | 249 to 250
COc1c(C)c2c(c(O)c1C/C=C(\C)C1CCCC1C(=O)O)C(=O)OC2 (stereo not given) | 157 to 158
S=c1nc(-c2ccncc2)[nH]n1Cc1ccccc1 | 160 to 162
CC(=O)N1CCC(C)(C)c2cc(F)cc(CCN3CCN(c4noc5ccccc45)CC3)c21 | 112
Cn1cc(S(=O)(=O)Cl)c(=O)c2ccc(C(F)(F)F)cc21 | 262 to 265
Cc1cccc(NC(=O)c2ccc(C(=O)N3Cc4ccccc4Cc4ccccc43)cc2)c1C | 248 to 251
CCN(CC)CCC(=O)Nc1ccc2c(c1)C(=O)c1cc(NC(=O)CCN(CC)CC)ccc1C2=O | 193
COc1cc(C(=O)N[C@@H]2c3cc(OC(F)(F)F)ccc3OC(C)(C)[C@H]2O)c([N+](=O)[O-])cc1OC | 97
CCOc1ccc2c(c1)C(C)(c1ccccc1Cl)C(=O)N2S(=O)(=O)c1ccc(C(=O)NC(C)(C)C)cc1 (stereo not given) | 157
Cc1cc(-n2ccnc2)c2cccc(OCc3c(Cl)ccc(S(=O)(=O)N4CCC[C@H]4C(=O)NCC4CC4)c3Cl)c2n1 | 100
CC(C)(C)OC(=O)N1CC(CCl)c2c1cc(N)c1ccccc21 (stereo not given) | > 200
Cn1cncc1C(O)(c1ccc(Cl)cc1)c1ccc2c(c1)C(c1cccc(Cl)c1)Nc1nnnn1-2 (stereo not given) | 212
Cc1cc2n[nH]c(=O)n2nc1-c1cccc([N+](=O)[O-])c1 | > 300
O=C(O)c1ccc2cn(C3CCCC3)nc2c1 | 190 to 193
Nc1ccccc1C=C1c2ccccc2CCc2ccccc21 | 145
CCOC(=O)Nc1ncc(-c2nc3ccccc3c(=O)n2-c2ccc(OC)cc2)s1 | 222 to 224
c1ccc(CSc2cnccn2)cc1 | 65 to 67
CC1(C)Oc2ccc(C#N)cc2C(C2=C(C(O)C(N)=O)C=CCC2)=C1O (stereo not given) | 235 to 237
Cc1cccc2c1ccc1c(O)cc(=O)oc12 | 223 to 225
N#CNC(=NCCO[N+](=O)[O-])c1cncc(N)c1 | 121
CCOC(=O)c1sc(-c2ccc(C(F)(F)F)cc2)nc1COC(C)=O | 82
Cc1cnc(CNC(=O)c2sc(-n3cnn(Cc4ccc(F)cc4)c3=O)nc2C)cn1 | 188 to 189
NC(=O)c1cc2c(SC3CCCCC3)cncc2s1 | 205 to 207
COc1ccccc1CCc1ccccc1C(=O)O | 118 to 119
